Test results published in ChEMBL document CHEMBL1201862, “PubChem BioAssay data set” (2004).
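Step 1: Grow cells in 96-well plates. Step 2: Expose to compound for 48 hours at 5 concentrations. Step 3: Interpolate endpoints linearly; if unreached, use highest concentration. Here, GI50 denotes the concentration required for 50% inhibition of growth.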 Activity calls are given as the source filed them. Rule as the data show it: active = GI50 up to about 1.1 µM and inactive = higher.

What was measured:
Assay in all cases: inhibition of tumour cell growth, NCI panel, 48 h
[1] = system: SK-MEL-28
[2] = system: 786-0
[3] = system: COLO 205
[4] = system: NCI-H226
[5] = system: NCI-H23
[6] = system: M14
[7] = system: CAKI-1
[8] = system: MCF7
[9] = system: HT-29
[10] = system: DU-145
[11] = system: HCC 2998
[12] = system: SNB-75
[13] = system: OVCAR-8
[14] = system: MOLT-4
[15] = system: OVCAR-3
[16] = system: CCRF-CEM
[17] = system: LOX IMVI
[18] = system: HOP-92
[19] = system: UACC-257
[20] = system: Hs-578T

| Compound | GI50 [1] | GI50 [2] | GI50 [3] | GI50 [4] | GI50 [5] | GI50 [6] | GI50 [7] | GI50 [8] | GI50 [9] | GI50 [10] | GI50 [11] | GI50 [12] | GI50 [13] | GI50 [14] | GI50 [15] | GI50 [16] | GI50 [17] | GI50 [18] | GI50 [19] | GI50 [20] |
| --- | --- | --- | --- | --- | --- | --- | --- | --- | --- | --- | --- | --- | --- | --- | --- | --- | --- | --- | --- | --- |
| O=C1Nc2ccccc2C1=Nc1ccc(S(=O)(=O)Nc2nccs2)cc1 | > 100 µM (inactive) | > 100 µM (inactive) | > 100 µM (inactive) | > 100 µM (inactive) | > 100 µM (inactive) | > 100 µM (inactive) | > 100 µM (inactive) | > 100 µM (inactive) | > 100 µM (inactive) | > 100 µM (inactive) | > 100 µM (inactive) | > 100 µM (inactive) | > 100 µM (inactive) | > 100 µM (inactive) | > 100 µM (inactive) | > 100 µM (inactive) | > 100 µM (inactive) | > 100 µM (inactive) | > 100 µM (inactive) | > 100 µM (inactive) |
| CC1(C)OCC(C2OC3OC(C)(C)OC3C2N)O1 (stereo not given) | > 100 µM (inactive) | > 100 µM (inactive) | > 100 µM (inactive) | > 100 µM (inactive) | > 100 µM (inactive) | > 100 µM (inactive) | > 100 µM (inactive) | > 100 µM (inactive) | > 100 µM (inactive) | > 100 µM (inactive) | > 100 µM (inactive) | > 100 µM (inactive) | > 100 µM (inactive) | > 100 µM (inactive) | > 100 µM (inactive) | > 100 µM (inactive) | > 100 µM (inactive) | > 100 µM (inactive) | > 100 µM (inactive) | > 100 µM (inactive) |
| C/C(=N\NC(N)=O)C(CN1CCOCC1)C(c1ccccc1)c1c(O)c2ccccc2oc1=O (stereo not given) | > 100 µM (inactive) | > 100 µM (inactive) | > 100 µM (inactive) | > 100 µM (inactive) | > 100 µM (inactive) | > 100 µM (inactive) | > 100 µM (inactive) | > 100 µM (inactive) | > 100 µM (inactive) | > 100 µM (inactive) | > 100 µM (inactive) | > 100 µM (inactive) | > 100 µM (inactive) | > 100 µM (inactive) | > 100 µM (inactive) | > 100 µM (inactive) | > 100 µM (inactive) | > 100 µM (inactive) | > 100 µM (inactive) | > 100 µM (inactive) |
| O=C1c2cc(CCl)sc2C(=O)c2ccsc21 | 0.0634 µM (active) | 1.53 µM (inactive) | 1.37 µM (inactive) | 1.69 µM (inactive) | 0.0618 µM (active) | < 0.0187 µM (active) | 1.72 µM (inactive) | 0.197 µM (active) | 1.16 µM (inactive) | 0.191 µM (active) | 1.67 µM (inactive) | 0.192 µM (active) | 0.215 µM (active) | 0.179 µM (active) | 0.207 µM (active) | 0.173 µM (active) | < 0.0248 µM (active) | 0.427 µM (active) | 0.181 µM (active) | 0.233 µM (active) |
| CC(=O)[C@@]1(O)CC[C@H]2[C@@H]3C[C@H](C)C4=CC(=O)CC[C@]4(C)[C@H]3[C@@H](O)C[C@@]21C | > 100 µM (inactive) | > 100 µM (inactive) | > 100 µM (inactive) | > 100 µM (inactive) | > 100 µM (inactive) | > 100 µM (inactive) | > 100 µM (inactive) | > 100 µM (inactive) | > 100 µM (inactive) | > 100 µM (inactive) | > 100 µM (inactive) | > 100 µM (inactive) | > 100 µM (inactive) | 46 µM (inactive) | > 100 µM (inactive) | 14.1 µM (inactive) | > 100 µM (inactive) | > 100 µM (inactive) | > 100 µM (inactive) | 68.1 µM (inactive) |
| CC12c3c4cccc3Oc3cc(N)cc(c31)Oc1cc(N)cc(c12)O4 | 6.21 µM (inactive) | 2.56 µM (inactive) | 3.29 µM (inactive) | 5.62 µM (inactive) | 8.43 µM (inactive) | 4.55 µM (inactive) | 9.86 µM (inactive) | 4.37 µM (inactive) | 2.01 µM (inactive) | 5.52 µM (inactive) | 4.61 µM (inactive) | 3.77 µM (inactive) | 0.524 µM (active) | 5.13 µM (inactive) | 2.41 µM (inactive) | 0.736 µM (active) | 6 µM (inactive) | 21.4 µM (inactive) | 5.71 µM (inactive) | 6.18 µM (inactive) |
| COc1cc([C@@H]2c3[nH]c4ccccc4c3C(Nc3ccc([N+](=O)[O-])cc3)[C@H]3COC(=O)N23)cc(OC)c1O (stereo not given in full) | 0.291 µM (active) | 0.177 µM (active) | 0.548 µM (active) | 0.138 µM (active) | 0.111 µM (active) | 0.321 µM (active) | 0.247 µM (active) | 0.0361 µM (active) | 0.228 µM (active) | 0.321 µM (active) | 0.392 µM (active) | 0.175 µM (active) | 0.285 µM (active) | 0.014 µM (active) | 0.382 µM (active) | 0.0395 µM (active) | 0.0822 µM (active) | 0.229 µM (active) | 0.857 µM (active) | 0.305 µM (active) |
| CC(=O)Nc1ccc(CNc2cc(=O)n(C)c(=O)[nH]2)cc1 | > 100 µM (inactive) | > 100 µM (inactive) | > 100 µM (inactive) | > 100 µM (inactive) | > 100 µM (inactive) | > 100 µM (inactive) | > 100 µM (inactive) | > 100 µM (inactive) | > 100 µM (inactive) | > 100 µM (inactive) | > 100 µM (inactive) | > 100 µM (inactive) | > 100 µM (inactive) | > 100 µM (inactive) | > 100 µM (inactive) | > 100 µM (inactive) | > 100 µM (inactive) | > 100 µM (inactive) | > 100 µM (inactive) | > 100 µM (inactive) |
| O=C(Nc1nc2ccccc2s1)c1cc([N+](=O)[O-])ccc1Cl | > 32.1 µM (inactive) | 11.1 µM (inactive) | 19.6 µM (inactive) | 16.9 µM (inactive) | 4.91 µM (inactive) | 8.97 µM (inactive) | 37.6 µM (inactive) | 0.91 µM (active) | 5.47 µM (inactive) | 6.84 µM (inactive) | 12.6 µM (inactive) | 13.8 µM (inactive) | 5 µM (inactive) | 2.81 µM (inactive) | 16.7 µM (inactive) | 0.0107 µM (active) | 3.44 µM (inactive) | 5.89 µM (inactive) | 42.2 µM (inactive) | 2.88 µM (inactive) |
| Oc1ccc(/C=C/c2cc(O)cc3c2C(c2cc(O)cc(O)c2)C(c2ccc(O)c(O)c2)O3)cc1 (stereo not given) | 25.1 µM (inactive) | 41.8 µM (inactive) | 19.5 µM (inactive) | 26 µM (inactive) | 18.8 µM (inactive) | 31.9 µM (inactive) | 31.7 µM (inactive) | 33.3 µM (inactive) | 17.6 µM (inactive) | 35.1 µM (inactive) | 25.4 µM (inactive) | 49.5 µM (inactive) | 21.6 µM (inactive) | 11.6 µM (inactive) | 27.8 µM (inactive) | 8.34 µM (inactive) | 27 µM (inactive) | 37.1 µM (inactive) | 25.3 µM (inactive) | 26.4 µM (inactive) |
